In the NIST ThermoML archive (doi:10.1016/j.jct.2013.09.008):
Numbers after ± are expanded uncertainties.

How the values were obtained:
[1] = wn = mass fraction of the nth substance listed; conditions: 101.33 kPa, Liquid; for speed of sound: Frequency=3 MHz, Linear variable-path acoustic interferometer; for mass density: Pycnometric method; for viscosity: Capillary tube (Ostwald / Ubbelohde) method
[2] = 101.33 kPa, Liquid; for speed of sound: Frequency=3 MHz, Linear variable-path acoustic interferometer; for viscosity: Capillary tube (Ostwald / Ubbelohde) method
[3] = mn = molality of the nth substance listed, in mol/kg; conditions: 101.33 kPa, Liquid, m2 = 0; for speed of sound: Frequency=3 MHz, Linear variable-path acoustic interferometer; for viscosity: Capillary tube (Ostwald / Ubbelohde) method

O=C[C@H](O)[C@@H](O)[C@H](O)[C@H](O)CO [D-glucose] + O
[1]
Conditions	mass density, w1 = 0.025 [kg/m3]	mass density, w1 = 0.05 [kg/m3]	speed of sound, w1 = 0.025 [m/s]	speed of sound, w1 = 0.05 [m/s]	viscosity, w1 = 0.025 [mPa·s]	viscosity, w1 = 0.05 [mPa·s]
293.15 K	–	1016.28 ± 0.41	1492.9 ± 2.5	–	–	–
298.15 K	1005.91 ± 0.4	1014.69 ± 0.42	–	1514.3 ± 2.5	0.9202 ± 0.02	0.9767 ± 0.021
303.15 K	1004.61 ± 0.41	1013.08 ± 0.43	1517.4 ± 2.5	1525.1 ± 2.5	0.8167 ± 0.017	0.8605 ± 0.018
308.15 K	1003.21 ± 0.44	1011.47 ± 0.45	–	1535.7 ± 2.5	0.7324 ± 0.016	0.7697 ± 0.016
313.15 K	1001.61 ± 0.46	1009.85 ± 0.46	1536.9 ± 2.5	1545.6 ± 2.5	0.661 ± 0.014	0.6945 ± 0.015
318.15 K	999.76 ± 0.49	–	–	1554.5 ± 2.5	0.6035 ± 0.013	0.6334 ± 0.013

OC[C@H]1O[C@@](CO)(O[C@H]2O[C@H](CO)[C@@H](O)[C@H](O)[C@H]2O)[C@@H](O)[C@@H]1O [D-sucrose] + O
[1]
Conditions	mass density, w1 = 0.025 [kg/m3]	mass density, w1 = 0.05 [kg/m3]	speed of sound, w1 = 0.025 [m/s]	speed of sound, w1 = 0.05 [m/s]	viscosity, w1 = 0.025 [mPa·s]	viscosity, w1 = 0.05 [mPa·s]
293.15 K	1009.22 ± 0.42	1018.91 ± 0.42	1497.2 ± 2.5	1501.4 ± 2.5	–	–
298.15 K	1007.51 ± 0.43	1017.19 ± 0.43	1511.2 ± 2.5	1516.5 ± 2.5	0.9618 ± 0.02	1.011 ± 0.021
303.15 K	1005.76 ± 0.44	1015.45 ± 0.45	1521.5 ± 2.5	1526.6 ± 2.5	0.8761 ± 0.019	0.9129 ± 0.019
308.15 K	1004.05 ± 0.45	1013.72 ± 0.46	1532.1 ± 2.5	1537.7 ± 2.5	0.7969 ± 0.017	0.8285 ± 0.018
313.15 K	1002.31 ± 0.47	1011.98 ± 0.47	1542.5 ± 2.5	1547.7 ± 2.5	0.7057 ± 0.015	0.7457 ± 0.016
318.15 K	1000.56 ± 0.48	1010.23 ± 0.48	1552 ± 2.5	1557.2 ± 2.5	0.6624 ± 0.014	0.6946 ± 0.015

O=C[C@H](O)[C@@H](O)[C@@H](O)CO [L-arabinose] + O
[1]
Conditions	mass density, w1 = 0.025 [kg/m3]	mass density, w1 = 0.05 [kg/m3]	speed of sound, w1 = 0.025 [m/s]	speed of sound, w1 = 0.05 [m/s]	viscosity, w1 = 0.025 [mPa·s]	viscosity, w1 = 0.05 [mPa·s]
293.15 K	1007.35 ± 0.41	1016.09 ± 0.41	1491.4 ± 2.5	1502.3 ± 2.5	–	–
298.15 K	1005.77 ± 0.42	1014.44 ± 0.43	1506.7 ± 2.5	1516.9 ± 2.5	0.9141 ± 0.019	0.9695 ± 0.021
303.15 K	1004.18 ± 0.43	1012.79 ± 0.44	1517 ± 2.5	1526.8 ± 2.5	0.8116 ± 0.017	0.8573 ± 0.018
308.15 K	1002.6 ± 0.44	1011.13 ± 0.45	1528.6 ± 2.5	1537.9 ± 2.5	0.7304 ± 0.016	0.7658 ± 0.016
313.15 K	1001.01 ± 0.45	1009.46 ± 0.46	1536.8 ± 2.5	1545.7 ± 2.5	0.6591 ± 0.014	0.689 ± 0.015
318.15 K	999.43 ± 0.47	1007.8 ± 0.48	1543.1 ± 2.5	1551.8 ± 2.5	0.6006 ± 0.013	0.6295 ± 0.013

O [water]
[2]
Conditions	speed of sound [m/s]	viscosity [mPa·s]
293.15 K	1483.6 ± 2.5	–
298.15 K	–	0.8903 ± 0.019
303.15 K	1508.4 ± 2.5	0.7973 ± 0.017
308.15 K	–	0.719 ± 0.015
313.15 K	1526.8 ± 2.5	0.6526 ± 0.014
318.15 K	1533 ± 2.5	0.5972 ± 0.013

O [water] + N[C@@H](Cc1ccccc1)C(=O)O
[3]
Conditions	speed of sound [m/s]	viscosity [mPa·s]
293.15 K	1483.6 ± 2.5	–
298.15 K	–	0.8903 ± 0.019
303.15 K	1508.4 ± 2.5	0.7973 ± 0.017
308.15 K	–	0.719 ± 0.015
313.15 K	1526.8 ± 2.5	0.6526 ± 0.014
318.15 K	1533 ± 2.5	0.5972 ± 0.013

Conditions	mass density [kg/m3]
[3], 308.15 K, Pycnometric method	994.07 ± 0.43
